The values below come from PubChem BioAssay (NCI).

Usually GI50 stands for the concentration at which growth is held to half of that of the control. As a reminder, the TGI is the concentration giving total growth inhibition. Low values mean more potent growth arrest, high ones less potent growth arrest.

Holding throughout (assay): DTP human tumour cell line panel, 48 h
For experiment [1], the system named is BT-549 breast.
Experiment [2] has as its system ACHN renal.
The subject of experiment [3] is OVCAR-8 ovarian.
Experiment [4] relates to HCT-15 colon.
The test system of experiment [5] is HL-60(TB) leukemia.
The subject of experiment [6] is SR leukemia.
For experiment [7], the system named is SN12C renal.
For experiment [8], the system named is CCRF-CEM leukemia.
Experiment [9] has as its system 786-0 renal.

Structures are written as SMILES.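 The compound was tested at five concentrations on cells cultured in 96-well plates, with a 48-hour exposure period. Here, GI50 denotes the concentration required for 50% inhibition of growth. TGI marks complete inhibition of growth.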

In the case of `N#Cc1ccccc1C#C/C=C\C#Cc1ccccc1N`, the GI50 in [1] is 8.39 µM; in experiment [2], 7.88 µM; in experiment [3], 7.27 µM; in [4], 3.85 µM; in [5], 4.22 µM; in [6], 0.745 µM. Besides, the GI50 in experiment [7] is 2.41 µM; in experiment [8], 1.6 µM. The TGI in experiment [1] is more than 28.2 µM; in experiment [2], more than 38.3 µM; in experiment [3], more than 30 µM; in experiment [5] it was more than 100 µM; in experiment [6] it was 2.52 µM; in experiment [7], 12.5 µM. Also, the TGI in experiment [8] was more than 100 µM.

As to `O=C1C2Cc3c(n(C(=O)c4ccccc4)c4ccccc34)CC2C(=O)N1c1ccc(Nc2ccc(N3C(=O)C4Cc5c(n(C(=O)c6ccccc6)c6ccccc56)CC4C3=O)cc2)cc1` (stereo not given), the TGI in [1] is more than 100 µM; in experiment [2], more than 100 µM; in experiment [3] it was more than 100 µM; in experiment [4], more than 100 µM; in [5] it was 46.1 µM; in [9] it was more than 100 µM. Moreover, the concentration for total growth inhibition (TGI) in experiment [6], in experiment [7] and in experiment [8] was more than 100 µM throughout.

As to `O=C(CC(c1ccccc1)C1C(=O)NC(=S)NC1=O)c1ccc([N+](=O)[O-])cc1` (stereo not given), the TGI in [1], in [2], in experiment [3], in experiment [4], in experiment [5] and in experiment [9] was more than 100 µM each time. The TGI in experiment [6], in experiment [7] and in experiment [8] was more than 100 µM throughout.

For `CC1=CC(O)C(C(O)(C(F)(F)F)C(F)(F)F)C(C)(C)C1` (stereo not given), the TGI in experiment [1], in experiment [2], in experiment [3], in experiment [4], in [5] and in experiment [7] was more than 10 µM each time. The TGI in [8] is more than 10 µM.

For `CS(C)(=O)=Nn1c(=O)n2n(c1=O)C1c3ccccc3C2c2ccccc21`, the TGI in [2], in experiment [3], in [4], in [5], in experiment [6] and in [8] was more than 100 µM throughout.

Consider `CC(C)CC1c2[nH]c3ccccc3c2C[C@H]2C(=O)NC(CCCCNC(=O)OC(C)(C)C)C(=O)N12` (stereo not given in full), for which the TGI in experiment [1] was 95.5 µM; in [2], more than 100 µM; in experiment [3] it was more than 100 µM; in [4] it was more than 100 µM; in experiment [5] it was 46.9 µM; in experiment [9], 50.7 µM. Moreover, the total growth inhibition concentration (TGI) in experiment [6] was determined as 50 µM; in [7], 77.4 µM.

As to `CC1(C(=O)O)C[C@](C)(C(=O)OCc2ccccc2)C[C@](C)(C(=O)OCc2ccccc2)C1` (stereo not given in full), the TGI in experiment [1] is 65.6 µM; in experiment [2] it was 57.5 µM; in [3], more than 100 µM; in experiment [4], 85.9 µM; in experiment [5], 53.9 µM; in experiment [9], more than 100 µM. Besides, the results for the TGI in experiment [6], in experiment [7] and in [8] were 83.7 µM, more than 100 µM and more than 100 µM, respectively.

As to `O=C(Nc1ccc(-n2ccc3c(NC(=O)c4ccccc4)nccc32)cc1)Nc1cccc(C(F)(F)F)c1`, the GI50 is 5.72 µM in [2]; 4.35 µM in experiment [3]; 1.03 µM in experiment [4]; 3.92 µM in experiment [5]; 1.49 µM in experiment [6]; 13.4 µM in experiment [7]. In addition, the GI50 in [8] was 1.27 µM. For the same compound, the TGI in [2] came to 19.6 µM; in experiment [3], 17.9 µM; in [4], 6.55 µM; in experiment [5], 14.2 µM; in experiment [6] it was 4.28 µM; in experiment [7], 27 µM. In experiment [8], this compound displayed a TGI of 5.55 µM.

In the case of `Cc1ccc(OCC2=NC3S/C(=C/c4ccc([N+](=O)[O-])o4)C(=O)N3N2)cc1` (stereo not given), the TGI in [1] stood at 25.1 µM; in [2] it was 3.14 µM; in experiment [3] it was 14.3 µM; in experiment [4] it was 7.04 µM; in experiment [5], 5.34 µM; in experiment [9], 23.7 µM. In addition, the TGI in experiment [6] turned out to be 11.4 µM; in experiment [7], 37 µM; in experiment [8] it was 35.3 µM.

Regarding `O=C(O)C(O)C(O)C(O)C(O)C(=O)O` (stereo not given), the TGI in experiment [2], in experiment [3], in experiment [4], in [5], in experiment [9] and in experiment [6] was more than 100 µM throughout. Besides, the TGI in experiment [7] and in experiment [8] was more than 100 µM each time.

`Nc1cc(S(=O)(=O)O)cc2ccc(S(=O)(=O)O)cc12`: the TGI in experiment [1], in experiment [2], in [3], in experiment [4], in experiment [5] and in [9] was more than 100 µM throughout. Further, the TGI in [6], in [7] and in [8] was more than 100 µM throughout.

As for `COC(=O)C1=C(OC(=O)/C=C/c2ccc(Cl)cc2)C(C(=O)OC)[C@]2(O)[C@@H](C(=O)OC)[C@H]1C[C@@H](c1ccccc1)[C@@H]2C(=O)OC` (stereo not given in full), the TGI in [1] is more than 28.5 µM; in [2] it was more than 100 µM; in experiment [3] it was more than 30.7 µM; in experiment [4], more than 47.1 µM; in [5] it was 23.7 µM; in experiment [9], more than 25.2 µM. In addition, the TGI in experiment [6] is more than 100 µM; in experiment [7], more than 29.5 µM; in experiment [8], more than 100 µM.

For `O=S(=O)(O)c1ccc2c(N=Nc3ccc(N=Nc4ccccc4)cc3)c(O)c(S(=O)(=O)O)cc2c1`, the TGI in experiment [1], in [2], in experiment [3], in experiment [4], in experiment [5] and in [9] was more than 100 µM each time. Further, the TGI in [6], in experiment [7] and in experiment [8] was more than 100 µM each time.

For the compound `CCN1CCN(c2nc3ccccc3nc2C(=O)c2ccc(OC)c(OC)c2)CC1`, the TGI is 65.6 µM in [1]; 26.8 µM in experiment [2]; 29.9 µM in experiment [3]; 28.8 µM in experiment [4]; more than 100 µM in [5]; 25.7 µM in experiment [9]. Moreover, the results for the TGI in experiment [6], in experiment [7] and in experiment [8] were 24.4 µM, more than 100 µM and 46 µM, respectively.
